{"source": "paper PMC3961306", "about": "“Comparison of the Cancer Gene Targeting and Biochemical Selectivities of All Targeted Kinase Inhibitors Approved for Clinical Use” (PLoS ONE, 2014)", "assay_in_all_cases": "Kinase profiling in a biochemical assay panel (mobility shift assays and ELISA), %-inhibition at 1 μM; selectivity entropy", "key": {"[1]": {"biological_target": "T1, panel of more than 300 wild-type and mutant kinases (313 kinase panel) (Homo sapiens, UniProt P45985)", "T1 sequence (P45985 1-399)": "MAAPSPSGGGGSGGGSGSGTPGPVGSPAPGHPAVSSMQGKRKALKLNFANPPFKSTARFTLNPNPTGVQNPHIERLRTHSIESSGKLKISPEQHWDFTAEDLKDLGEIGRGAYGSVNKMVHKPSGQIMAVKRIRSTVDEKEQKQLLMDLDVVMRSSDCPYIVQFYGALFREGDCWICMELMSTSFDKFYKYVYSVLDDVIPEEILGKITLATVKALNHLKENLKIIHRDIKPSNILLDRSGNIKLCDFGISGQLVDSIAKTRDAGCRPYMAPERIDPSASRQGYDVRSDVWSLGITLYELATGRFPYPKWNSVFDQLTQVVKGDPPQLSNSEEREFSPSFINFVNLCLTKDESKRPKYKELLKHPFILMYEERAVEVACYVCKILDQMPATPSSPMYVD", "settings": "kinase MAP2K4; compound at 1 μM"}, "[2]": {"biological_target": "T2, panel of more than 300 wild-type and mutant kinases (313 kinase panel) (Homo sapiens, UniProt O15111)", "T2 sequence (O15111 1-745)": "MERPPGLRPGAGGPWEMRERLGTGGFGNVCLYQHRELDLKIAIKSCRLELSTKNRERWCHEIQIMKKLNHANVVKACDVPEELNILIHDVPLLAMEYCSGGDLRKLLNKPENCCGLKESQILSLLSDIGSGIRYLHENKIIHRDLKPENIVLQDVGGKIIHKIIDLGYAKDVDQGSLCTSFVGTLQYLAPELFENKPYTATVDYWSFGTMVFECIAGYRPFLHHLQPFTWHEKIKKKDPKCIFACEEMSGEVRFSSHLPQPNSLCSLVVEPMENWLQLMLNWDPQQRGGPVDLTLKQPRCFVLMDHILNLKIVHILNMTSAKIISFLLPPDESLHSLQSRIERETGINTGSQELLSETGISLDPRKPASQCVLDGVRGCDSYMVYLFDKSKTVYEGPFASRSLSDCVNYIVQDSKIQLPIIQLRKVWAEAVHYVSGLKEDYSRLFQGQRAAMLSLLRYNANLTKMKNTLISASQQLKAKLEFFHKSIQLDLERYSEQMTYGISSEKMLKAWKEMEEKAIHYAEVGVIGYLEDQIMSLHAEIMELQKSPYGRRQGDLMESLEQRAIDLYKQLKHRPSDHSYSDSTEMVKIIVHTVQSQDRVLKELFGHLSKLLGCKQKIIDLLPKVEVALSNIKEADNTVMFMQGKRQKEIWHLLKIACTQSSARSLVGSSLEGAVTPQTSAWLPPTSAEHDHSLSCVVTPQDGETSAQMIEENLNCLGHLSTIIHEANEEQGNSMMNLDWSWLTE", "settings": "kinase IKKα; compound at 1 μM"}, "[3]": {"biological_target": "T3, panel of more than 300 wild-type and mutant kinases (313 kinase panel) (Homo sapiens, UniProt Q06418)", "T3 sequence (Q06418 41-890)": "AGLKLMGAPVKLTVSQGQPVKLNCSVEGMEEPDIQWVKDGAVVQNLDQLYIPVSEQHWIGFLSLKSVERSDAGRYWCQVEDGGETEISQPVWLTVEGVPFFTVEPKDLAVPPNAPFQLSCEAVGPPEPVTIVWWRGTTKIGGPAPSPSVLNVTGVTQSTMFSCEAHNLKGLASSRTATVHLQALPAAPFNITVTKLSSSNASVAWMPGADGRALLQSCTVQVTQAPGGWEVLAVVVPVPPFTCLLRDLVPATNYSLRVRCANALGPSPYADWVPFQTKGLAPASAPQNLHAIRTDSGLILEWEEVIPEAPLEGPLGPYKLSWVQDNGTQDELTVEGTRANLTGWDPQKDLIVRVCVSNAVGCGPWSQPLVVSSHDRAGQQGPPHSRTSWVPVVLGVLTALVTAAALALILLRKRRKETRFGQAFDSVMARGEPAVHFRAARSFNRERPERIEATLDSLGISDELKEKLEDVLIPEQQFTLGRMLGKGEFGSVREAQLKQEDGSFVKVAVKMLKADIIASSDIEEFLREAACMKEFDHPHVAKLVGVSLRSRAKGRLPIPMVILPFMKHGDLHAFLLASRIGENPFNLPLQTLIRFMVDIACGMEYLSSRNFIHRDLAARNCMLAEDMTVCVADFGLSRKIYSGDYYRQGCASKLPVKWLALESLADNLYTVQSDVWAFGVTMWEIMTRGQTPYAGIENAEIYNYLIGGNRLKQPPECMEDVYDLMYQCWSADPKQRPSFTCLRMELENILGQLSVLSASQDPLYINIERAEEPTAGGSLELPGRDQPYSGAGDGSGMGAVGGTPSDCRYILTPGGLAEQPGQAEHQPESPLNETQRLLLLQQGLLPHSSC"}, "[4]": {"biological_target": "panel of more than 300 wild-type and mutant kinases (313 kinase panel) (Homo sapiens, UniProt P10721, V654A)", "sequence (P10721 26-976 V654A)": "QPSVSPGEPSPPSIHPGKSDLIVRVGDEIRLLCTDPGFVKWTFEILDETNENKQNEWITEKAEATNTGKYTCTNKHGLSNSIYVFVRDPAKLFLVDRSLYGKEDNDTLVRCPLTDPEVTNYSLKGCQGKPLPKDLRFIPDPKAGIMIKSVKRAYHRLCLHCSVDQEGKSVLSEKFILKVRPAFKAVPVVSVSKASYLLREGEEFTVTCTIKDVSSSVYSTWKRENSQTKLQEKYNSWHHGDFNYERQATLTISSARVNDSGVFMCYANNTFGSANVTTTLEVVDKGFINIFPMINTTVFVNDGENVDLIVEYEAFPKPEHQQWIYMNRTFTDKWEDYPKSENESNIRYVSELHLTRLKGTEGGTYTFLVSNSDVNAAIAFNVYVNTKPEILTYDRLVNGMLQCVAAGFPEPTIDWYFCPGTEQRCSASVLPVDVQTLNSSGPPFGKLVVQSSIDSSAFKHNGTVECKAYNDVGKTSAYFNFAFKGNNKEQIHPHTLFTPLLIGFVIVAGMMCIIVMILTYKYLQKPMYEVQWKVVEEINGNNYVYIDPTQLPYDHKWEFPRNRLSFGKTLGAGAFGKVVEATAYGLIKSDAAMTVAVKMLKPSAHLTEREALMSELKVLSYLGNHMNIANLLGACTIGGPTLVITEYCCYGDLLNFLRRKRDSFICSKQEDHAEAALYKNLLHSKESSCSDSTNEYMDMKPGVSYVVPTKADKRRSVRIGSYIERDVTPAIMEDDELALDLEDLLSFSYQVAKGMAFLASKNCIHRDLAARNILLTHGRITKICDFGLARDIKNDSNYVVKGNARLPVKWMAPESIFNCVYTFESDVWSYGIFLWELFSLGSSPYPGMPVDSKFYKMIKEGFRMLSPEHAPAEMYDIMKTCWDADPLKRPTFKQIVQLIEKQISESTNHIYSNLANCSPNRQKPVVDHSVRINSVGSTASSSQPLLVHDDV"}, "[5]": {"biological_target": "panel of more than 300 wild-type and mutant kinases (313 kinase panel) (Homo sapiens, UniProt O96017)", "settings": "kinase CHK2; 1 μM compound"}, "[6]": {"biological_target": "panel of more than 300 wild-type and mutant kinases (313 kinase panel) (Homo sapiens, UniProt Q15303)", "sequence (Q15303 26-1308, change not shown)": "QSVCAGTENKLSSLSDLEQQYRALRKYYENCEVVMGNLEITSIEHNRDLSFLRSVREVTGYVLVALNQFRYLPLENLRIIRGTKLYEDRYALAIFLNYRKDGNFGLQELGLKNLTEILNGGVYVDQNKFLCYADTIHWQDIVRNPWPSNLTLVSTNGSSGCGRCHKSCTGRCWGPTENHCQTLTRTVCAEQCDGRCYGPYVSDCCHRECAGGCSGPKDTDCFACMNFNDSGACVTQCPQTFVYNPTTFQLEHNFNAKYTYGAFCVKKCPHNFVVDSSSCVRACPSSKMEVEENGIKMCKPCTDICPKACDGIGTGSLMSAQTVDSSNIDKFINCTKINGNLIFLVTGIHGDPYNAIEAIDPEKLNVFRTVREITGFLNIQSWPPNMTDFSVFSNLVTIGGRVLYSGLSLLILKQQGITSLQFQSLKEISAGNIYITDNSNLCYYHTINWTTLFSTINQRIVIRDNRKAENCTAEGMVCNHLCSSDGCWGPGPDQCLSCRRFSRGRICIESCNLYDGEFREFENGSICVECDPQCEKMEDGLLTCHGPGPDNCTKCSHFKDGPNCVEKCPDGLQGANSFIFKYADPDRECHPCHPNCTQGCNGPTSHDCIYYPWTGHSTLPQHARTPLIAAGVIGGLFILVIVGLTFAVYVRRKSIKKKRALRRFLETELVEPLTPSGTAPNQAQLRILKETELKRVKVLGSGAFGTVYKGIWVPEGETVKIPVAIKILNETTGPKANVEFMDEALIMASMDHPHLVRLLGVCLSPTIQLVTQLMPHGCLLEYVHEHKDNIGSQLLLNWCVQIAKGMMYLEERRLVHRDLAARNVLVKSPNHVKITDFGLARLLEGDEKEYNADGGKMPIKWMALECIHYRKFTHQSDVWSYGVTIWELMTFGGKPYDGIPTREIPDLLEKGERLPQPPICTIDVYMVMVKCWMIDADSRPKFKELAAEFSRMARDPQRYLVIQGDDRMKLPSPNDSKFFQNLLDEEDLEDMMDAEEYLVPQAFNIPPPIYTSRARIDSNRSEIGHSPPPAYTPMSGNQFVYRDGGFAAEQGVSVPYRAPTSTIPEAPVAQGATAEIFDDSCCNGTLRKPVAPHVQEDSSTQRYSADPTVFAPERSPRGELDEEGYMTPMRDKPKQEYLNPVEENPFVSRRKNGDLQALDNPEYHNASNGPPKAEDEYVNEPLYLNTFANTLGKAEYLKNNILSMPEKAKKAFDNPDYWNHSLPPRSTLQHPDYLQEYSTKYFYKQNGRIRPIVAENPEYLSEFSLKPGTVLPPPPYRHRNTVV"}, "[7]": {"settings": "kinase KIT(V654A), compound at 1 μM"}}}
{"smiles": "Cc1cn(-c2cc(NC(=O)c3ccc(C)c(Nc4nccc(-c5cccnc5)n4)c3)cc(C(F)(F)F)c2)cn1", "note": "[nilotinib]", "values": [{"measurement": "%-inhibition of MAP2K4", "setting": "[1]", "value": -4.54, "unit": "%"}, {"measurement": "%-inhibition of IKKα", "setting": "[2]", "value": 1.27, "unit": "%"}, {"measurement": "%-inhibition of TYRO3", "setting": "[3]; 1 µM", "value": -32, "unit": "%"}, {"measurement": "%-inhibition of KIT(V654A)", "setting": "[4]; 1 µM", "value": 19, "unit": "%"}, {"measurement": "%-inhibition, CHK2", "setting": "[5]", "value": -12, "unit": "%"}, {"measurement": "%-inhibition of HER4", "setting": "[6]; 1 µM", "value": 73, "unit": "%"}]}
{"smiles": "Cc1ccc(Nc2nccc(N(C)c3ccc4c(C)n(C)nc4c3)n2)cc1S(N)(=O)=O", "note": "[pazopanib]", "values": [{"measurement": "%-inhibition of IKKα", "setting": "[2]", "value": -1.68, "unit": "%"}, {"measurement": "%-inhibition of TYRO3", "setting": "[3]; kinase TYRO3, compound at 1 μM", "value": 27, "unit": "%"}, {"measurement": "%-inhibition of KIT(V654A)", "setting": "[4]; [7]", "value": 87, "unit": "%"}, {"measurement": "%-inhibition, CHK2", "setting": "[5]", "value": 5.7, "unit": "%"}, {"measurement": "%-inhibition of HER4", "setting": "[6]; kinase HER4, compound at 1 μM", "value": 16, "unit": "%"}]}
{"smiles": "Cc1ccc(C(=O)Nc2ccc(CN3CCN(C)CC3)c(C(F)(F)F)c2)cc1C#Cc1cnc2cccnn12", "note": "[ponatinib]", "values": [{"measurement": "%-inhibition of IKKα", "setting": "[2]", "value": 27, "unit": "%"}, {"measurement": "%-inhibition of TYRO3", "setting": "[3]; kinase TYRO3, compound at 1 μM", "value": 45, "unit": "%"}, {"measurement": "%-inhibition of HER4", "setting": "[6]; kinase HER4, compound at 1 μM", "value": 101, "unit": "%"}]}
{"smiles": "CNC(=O)c1cc(Oc2ccc(NC(=O)Nc3ccc(Cl)c(C(F)(F)F)c3)c(F)c2)ccn1", "note": "[regorafenib]", "values": [{"measurement": "%-inhibition of MAP2K4", "setting": "[1]", "value": 0.434, "unit": "%"}, {"measurement": "%-inhibition of IKKα", "setting": "[2]", "value": -0.333, "unit": "%"}, {"measurement": "%-inhibition of TYRO3", "setting": "[3]; kinase TYRO3, compound at 1 μM", "value": 34, "unit": "%"}, {"measurement": "%-inhibition, CHK2", "setting": "[5]", "value": -2.11, "unit": "%"}, {"measurement": "%-inhibition of HER4", "setting": "[6]; kinase HER4, compound at 1 μM", "value": 3.81, "unit": "%"}]}
{"smiles": "N#CC[C@H](C1CCCC1)n1cc(-c2ncnc3[nH]ccc23)cn1", "note": "[ruxolitinib]", "values": [{"measurement": "%-inhibition of MAP2K4", "setting": "[1]", "value": 10, "unit": "%"}, {"measurement": "%-inhibition of IKKα", "setting": "[2]", "value": -2.5, "unit": "%"}, {"measurement": "%-inhibition of TYRO3", "setting": "[3]; kinase TYRO3, compound at 1 μM", "value": -3, "unit": "%"}, {"measurement": "%-inhibition of KIT(V654A)", "setting": "[4]; [7]", "value": -10, "unit": "%"}, {"measurement": "%-inhibition, CHK2", "setting": "[5]", "value": 3.64, "unit": "%"}, {"measurement": "%-inhibition of HER4", "setting": "[6]; 1 µM", "value": -1.9, "unit": "%"}]}
{"smiles": "CCN(CC)CCNC(=O)c1c(C)[nH]c(/C=C2\\C(=O)Nc3ccc(F)cc32)c1C", "note": "[sunitinib]", "values": [{"measurement": "%-inhibition of IKKα", "setting": "[2]", "value": 0.813, "unit": "%"}, {"measurement": "%-inhibition of TYRO3", "setting": "[3]; kinase TYRO3, compound at 1 μM", "value": 98, "unit": "%"}]}
{"smiles": "CO[C@H]1C[C@@H]2CC[C@@H](C)[C@@](O)(O2)C(=O)C(=O)N2CCCC[C@H]2C(=O)O[C@H]([C@H](C)C[C@@H]2CC[C@@H](OC(=O)C(C)(CO)CO)[C@H](OC)C2)CC(=O)[C@H](C)/C=C(\\C)[C@@H](O)[C@@H](OC)C(=O)[C@H](C)C[C@H](C)/C=C/C=C/C=C/1C", "note": "[temsirolimus]", "values": [{"measurement": "%-inhibition of MAP2K4", "setting": "[1]", "value": 8.51, "unit": "%"}, {"measurement": "%-inhibition of IKKα", "setting": "[2]", "value": 1.39, "unit": "%"}, {"measurement": "%-inhibition of TYRO3", "setting": "[3]; kinase TYRO3, compound at 1 μM", "value": -1.34, "unit": "%"}, {"measurement": "%-inhibition of KIT(V654A)", "setting": "[4]; [7]", "value": -4.65, "unit": "%"}, {"measurement": "%-inhibition, CHK2", "setting": "[5]", "value": -3.45, "unit": "%"}, {"measurement": "%-inhibition of HER4", "setting": "[6]; kinase HER4, compound at 1 μM", "value": -5.46, "unit": "%"}]}
{"smiles": "CC(=O)Nc1cccc(-n2c(=O)n(C3CC3)c(=O)c3c(Nc4ccc(I)cc4F)n(C)c(=O)c(C)c32)c1", "note": "[trametinib]", "values": [{"measurement": "%-inhibition of MAP2K4", "setting": "[1]", "value": 2.18, "unit": "%"}, {"measurement": "%-inhibition of IKKα", "setting": "[2]", "value": 2.63, "unit": "%"}, {"measurement": "%-inhibition of TYRO3", "setting": "[3]; kinase TYRO3, compound at 1 μM", "value": -2.65, "unit": "%"}, {"measurement": "%-inhibition of KIT(V654A)", "setting": "[4]; [7]", "value": -1.62, "unit": "%"}, {"measurement": "%-inhibition, CHK2", "setting": "[5]", "value": -5, "unit": "%"}, {"measurement": "%-inhibition of HER4", "setting": "[6]; kinase HER4, compound at 1 μM", "value": 2.34, "unit": "%"}]}
{"smiles": "COc1cc2c(Nc3ccc(Br)cc3F)ncnc2cc1OCC1CCN(C)CC1", "note": "[vandetanib]", "values": [{"measurement": "%-inhibition of MAP2K4", "setting": "[1]", "value": -2.77, "unit": "%"}, {"measurement": "%-inhibition of IKKα", "setting": "[2]", "value": -4.38, "unit": "%"}, {"measurement": "%-inhibition of TYRO3", "setting": "[3]; kinase TYRO3, compound at 1 μM", "value": 94, "unit": "%"}, {"measurement": "%-inhibition, CHK2", "setting": "[5]", "value": 57, "unit": "%"}]}
{"smiles": "CCCS(=O)(=O)Nc1ccc(F)c(C(=O)c2c[nH]c3ncc(-c4ccc(Cl)cc4)cc23)c1F", "note": "[vemurafenib]", "values": [{"measurement": "%-inhibition of IKKα", "setting": "[2]", "value": -1.89, "unit": "%"}, {"measurement": "%-inhibition of TYRO3", "setting": "[3]; kinase TYRO3, compound at 1 μM", "value": 3.16, "unit": "%"}, {"measurement": "%-inhibition of KIT(V654A)", "setting": "[4]; [7]", "value": -1.8, "unit": "%"}, {"measurement": "%-inhibition, CHK2", "setting": "[5]", "value": 6.32, "unit": "%"}, {"measurement": "%-inhibition of HER4", "setting": "[6]; kinase HER4, compound at 1 μM", "value": 11, "unit": "%"}]}
